# Source: US12576107B2, “Methods of treating chronic inflammatory diseases” (METIMEDI PHARMACEUTICALS CO., LTD., priority 2018, dated 2026)
# Tests used:
# lactate dehydrogenase A = assay: Human endothelial cell in vitro experiment, Western blot in HUVEC; type: cell-based; details: 2.5 mM, human umbilical vein endothelial cells
# Experimental: Human Umbilical Vein Endothelial cell line, HUVEC, was purchased from American Type Culture Collection (Manassas, VA, USA). The HUVEC cells were Endothelial Cell Growth Medium 2 maintained in Endothelial Cell Growth Medium 2 Supplement MIX (PromoCell, Heidelberg, Germany)
# To prepare whole cell lysate, cells were lysed with lysis buffer (1% NP-40, 0.25% sodium deoxycholate, 150 mM NaCl, 1 mM EDTA, 1% Triton X-100, 50 mM Tris-HCl (pH 7.4), 10% Glycerol) with protease inhibitor cocktail (Roche, Basel, Switzerland) and phosphatase inhibitors (NA3VO4 1 mM, NaF 100 mM). Then, protein concentration was measured using the Bicinchoninic acid (BCA) assay kit (Thermo Scientific, Waltham, MA). Whole cell or nuclear lysates were transferred onto polyvinylidene fluoride membranes (Merck Millipore, Billerica, MA, USA). After blocking in 5% non-fat milk (Bio-Rad, Hercules, CA, USA) for 1 h, the membranes were incubated overnight at 4° C. with primary antibody diluted in TBST containing 100 mM Tris-HCl (pH 7.5), 1.5 M NaCl, and 0.5% Tween-20 obtained from Sigma-Aldrich, to which 5% BSA and 0.1% sodium azide (Sigma-Aldrich) had been added. Specific primary antibodies to HIF-1α (1:1000), HIF-2α (1:1000), LDH-A (1:1000), LDH-B (1:1000), TLR-4 (1:1000), NF-κB (1:1000), VEGF (1:1000), α-tubulin (1:1000), Actin (1:1000), and GAPDH (1:5000). […]
# [1] = test system: LPS-damaged brain of rats; assay: Alzheimer and stroke model, intracranial injection of LPS; type: in vivo, Sprague-Dawley (SD) rats; details: 2 mg/kg daily subcutaneous 21 days
# Experimental: Animals. […] Eight-week old male Sprague-Dawley (SD) rats were obtained from Samtako Co. (Osan, Gyeonggi-do, Republic of Korea) and bred under specific-pathogen-free (SPF) conditions. All animals were maintained in a 12-hour light/dark cycle at 22-25° C. with free access to food and water.
# Dissolve 1 mg of LPS powder in 1 ml of saline. Keep the tubes on ice if LPS is going to be used fresh. For long storage, screw cap vials are preferred. The aliquots were stored at −20° C. Calcium lactate was purchased from Sigma Aldrich (St. Louis, MO, USA).
# Intracranial injection of LPS. The animals were placed in a small acrylic cage that was coupled with an anesthesia machine that allowed them to breathe freely under gaseous anesthesia (2% isoflurane, Spartanburg, SC, USA). […] The animal fur of head was shaved with an electric clipper, and the skin was swabbed with iodine. LPS was kept it on ice before use. All the surgical materials disinfected with 70% ethanol. Hamilton syringe barrel inner space was cleaned with distilled water and 70% ethanol. The Hamilton syringe was placed in the syringe holder. The animal in the stereotaxic apparatus was placed on horizontal position. A midline incision (about 1 cm) on the skin of head was made with the scalpel. The needle of Hamilton syringe was placed on the bregma. Read the three coordinates (AP: −3.6, LM: 2.0, and DV: −3.8) on the manipulator (in mm) and write them down; this was used for starting point. Slowly, set the DV coordinate of the injection point; this inserts the needle tip into the brain until the injection point. The LPS solution (2 μl) was released at an approximate flow rate of 0.5 μl/min. After the injection, the needle was removed very slowly. The wound area was closed by suturing, and then disinfectant was applied. The rat was marked for further identification.
# Immunohistochemistry. Brain tissue was sectioned at 5 μm on cryostat and stained for histological examination. Microscopic images were obtained at 200× magnification. […]
# nuclear factor-kappa B = assay: Immunocytochemistry of nuclear factor-kappa B in ARPE-19 cells; type: cell-based, Human; details: 2.5 mM, hypoxia
# Experimental: Human retinal pigment epithelium cell line, ARPE-19, was purchased from American Type Culture Collection (Manassas, VA, USA). The ARPE-19 cells were maintained in RPMI1640 containing 10% fetal bovine serum (Life Technologies, Gaithersburg, MD, USA), 100 IU/ml penicillin, and 100 μg/ml streptomycin (Welgene, Daegu, South Korea).
# ARPE-19 and SK-N-SH cells were fixed on bio-coated coverslips (BD bioscience, San Jose, CA, USA) by 4% PFA for 20 min and then incubated with the primary antibodies for 15 h. The primary antibodies were as follows: HIF-1a (1:300, BD Biosciences, San Jose, CA, USA); LDH-A (1:300, Santa Cruz Biotechnology, Santa Cruz, CA, USA); LDH-B (1:300, Santa Cruz Biotechnology, Santa Cruz, CA, USA); NF-κB (1:300, Santa Cruz Biotechnology, Santa Cruz, CA, USA); TLR-4 (1:300, Santa Cruz Biotechnology, Santa Cruz, CA, USA); apoE (1:200, Santa Cruz Biotechnology, Santa Cruz, CA, USA). After PBS wash, the cells were incubated with anti-mouse secondary biotinylated antibody (1:2000, Vector Laboratorie, Burlingame, CA, USA) and visualized with streptavidin conjugated to Fluorescein (Vector Laboratorie, Burlingame, CA, USA). […] Confocal fluorescence images were obtained with confocal laser scanning microscopy (LSCM, Nikon A1+, Tokyo, Japan) under a 60× oil immersion lens.
structure (smiles),measurement,setting,value
CC(O)C(=O)[O-].CC(O)C(=O)[O-].[Ca+2] (centres unmarked) [calcium lactate],"hypoxia-mediated factors (lactate dehydrogenase A), Western blot",lactate dehydrogenase A,decreased
same,damaged brain tissue,[1],Recovery
same,"inflammatory reaction, which exacerbates Alzheimer's and stroke",[1],greatly reduced
same,microglia infiltration (Iba-1) in brain,[1],reduction
same,"inflammatory factor (nuclear factor-kappa B), immunocytochemistry",nuclear factor-kappa B,decreased
